Among the test systems are SW-620 colon; DU-145 prostate; NCI-H226 lung; NCI-H522 lung; TK-10 renal; SNB-75 CNS; MDA-MB-231 breast; UACC-257 melanoma; NCI-H460 lung; M14 melanoma.
Assay in all cases: NCI tumour cell line growth inhibition, 48 h

The structures appear in SMILES notation.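 Values below derive from 48-hour exposures of cells grown in 96-well plates, with endpoints linearly interpolated between the two concentrations bracketing the appropriate inhibition level. GI50 is the concentration that inhibits growth by half. TGI: total growth inhibition.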

Turning to `Cn1c2ccccc2c(=O)c2c(O)cc3c(c21)C=CC1(CCCCC1)O3`, the TGI in the assay on SW-620 colon, with DU-145 prostate, in the assay with NCI-H226 lung, in the assay on NCI-H522 lung, in the assay on TK-10 renal and with SNB-75 CNS was > 10 µM in each case. Also, the TGI with MDA-MB-231 breast, in the assay on UACC-257 melanoma, in the assay on NCI-H460 lung and in the assay on M14 melanoma was > 10 µM throughout.
With `O=c1cc(N2CCCC2)[nH]c(=O)n1-c1ccccc1`, the TGI with SW-620 colon, in the assay with DU-145 prostate, with NCI-H226 lung, in the assay on NCI-H522 lung, with TK-10 renal and with SNB-75 CNS was > 100 µM throughout. The TGI in the assay with MDA-MB-231 breast, in the assay on UACC-257 melanoma, in the assay with NCI-H460 lung and with M14 melanoma was > 100 µM throughout.
Regarding `COC1CC(OC2CCC3(C)C(=CCC4C3C(OC(C)=O)C(OC(=O)CC(C)C)C3(C)C(C(C)=O)CCC43O)C2)OC(C)C1OC1CC(OC)C(OC2CC(OC)C(OC3OC(C)C(OC4OC(CO)C(O)C(O)C4O)C(OC)C3O)C(C)O2)C(C)O1` (stereo not given), the TGI in the assay with SW-620 colon, in the assay with DU-145 prostate, in the assay with NCI-H226 lung, in the assay on NCI-H522 lung, with TK-10 renal and in the assay with SNB-75 CNS was > 75 µM in each case. Also, the TGI in the assay with MDA-MB-231 breast is > 75 µM; in the assay on UACC-257 melanoma, > 75 µM; in the assay on NCI-H460 lung it was > 7.5 µM; in the assay on M14 melanoma, > 75 µM.
Take `S=c1cc(-c2ccc3c(c2)OCO3)s[nH]1`: the TGI was > 100 µM in the assay on SW-620 colon; > 100 µM in the assay on DU-145 prostate; > 100 µM in the assay on NCI-H226 lung; 54.6 µM in the assay with NCI-H522 lung; > 100 µM in the assay with TK-10 renal; > 100 µM with SNB-75 CNS. For the same compound, the TGI with MDA-MB-231 breast, with UACC-257 melanoma, in the assay with NCI-H460 lung and in the assay with M14 melanoma was > 100 µM throughout.
As for `COC(=O)C1(Cc2ccc3c(c2)CCC3)Cc2ccccc2C1`, the TGI in the assay on SW-620 colon was > 100 µM; in the assay on DU-145 prostate, > 100 µM; in the assay with NCI-H226 lung it was > 100 µM; in the assay with NCI-H522 lung it was 77.1 µM; with TK-10 renal, > 100 µM; in the assay with SNB-75 CNS, > 100 µM. Further, the TGI with MDA-MB-231 breast, in the assay on UACC-257 melanoma, in the assay with NCI-H460 lung and with M14 melanoma was > 100 µM each time.
`C\C(=N/N=C1/C(=C\N(C)C)C(=O)NC(=O)N1C)c1ccc(Cl)cc1`: the TGI in the assay on SW-620 colon, in the assay on DU-145 prostate, in the assay on NCI-H226 lung, in the assay on NCI-H522 lung, with TK-10 renal and with SNB-75 CNS was > 100 µM each time. In addition, the TGI in the assay with MDA-MB-231 breast, in the assay on UACC-257 melanoma, with NCI-H460 lung and in the assay on M14 melanoma was > 100 µM in each case.
Take `COc1cc(/C=C/C=C2\CC/C(=C\C=C\c3ccc(O)c(OC)c3)C2=O)ccc1O`: the TGI with SW-620 colon is > 100 µM; with DU-145 prostate, > 100 µM; with NCI-H226 lung, > 100 µM; in the assay with NCI-H522 lung, 25.9 µM; with TK-10 renal it was > 100 µM; in the assay with SNB-75 CNS, > 100 µM. The TGI with MDA-MB-231 breast, in the assay on UACC-257 melanoma, with NCI-H460 lung and in the assay with M14 melanoma was > 100 µM in each case.
For the compound `COc1ccc(CN2C3CC2CN(c2ccc(-c4cc(OCC(C)(C)O)cn5ncc(C#N)c45)cn2)C3)cn1`, the GI50 in the assay on SW-620 colon was 4.49 µM; in the assay on DU-145 prostate, 26.2 µM; in the assay on NCI-H226 lung, 1.66 µM; with NCI-H522 lung, 17.5 µM; in the assay with TK-10 renal, 10.5 µM; in the assay on SNB-75 CNS it was 1.32 µM. Besides, the GI50 was 8.04 µM in the assay with MDA-MB-231 breast, > 100 µM in the assay with UACC-257 melanoma, 15.9 µM with NCI-H460 lung and 24.2 µM with M14 melanoma. The TGI with SW-620 colon is > 100 µM; with DU-145 prostate it was > 100 µM; with NCI-H226 lung it was > 100 µM; with NCI-H522 lung, > 100 µM; in the assay with TK-10 renal, > 100 µM; in the assay on SNB-75 CNS, 4.81 µM. Moreover, the TGI in the assay with MDA-MB-231 breast, in the assay on UACC-257 melanoma, in the assay on NCI-H460 lung and in the assay on M14 melanoma was > 100 µM throughout.
With `CO[C@@H]1O[C@H](C(=O)c2ccccc2)[C@H]2OC(C)(C)O[C@@H]12`, the TGI in the assay with SW-620 colon, in the assay on DU-145 prostate, in the assay with NCI-H226 lung, in the assay with NCI-H522 lung, in the assay on TK-10 renal and in the assay with SNB-75 CNS was > 100 µM throughout. The TGI in the assay on MDA-MB-231 breast, with UACC-257 melanoma, with NCI-H460 lung and in the assay with M14 melanoma was > 100 µM in each case.
For `C[n+]1c(-c2ccc(/C=C/C=N\NC(=O)c3ccc(C(=O)N/N=C\C=C\c4ccc(-c5cn6ccccc6[n+]5C)cc4)cc3)cc2)cn2ccccc21`, the TGI was > 100 µM in the assay with SW-620 colon; 97.6 µM in the assay with DU-145 prostate; > 100 µM with NCI-H226 lung; > 100 µM in the assay with NCI-H522 lung; > 100 µM with TK-10 renal; > 100 µM in the assay on SNB-75 CNS. In addition, the TGI with MDA-MB-231 breast is > 58.8 µM; in the assay on UACC-257 melanoma it was > 100 µM; with NCI-H460 lung, > 100 µM; with M14 melanoma, > 100 µM.
On to `CC(=O)OC(Cn1cncn1)(Cn1cncn1)c1ccc(Cl)cc1Cl`, for which the TGI in the assay with SW-620 colon, with DU-145 prostate, with NCI-H226 lung, with NCI-H522 lung, with TK-10 renal and with SNB-75 CNS was > 100 µM each time. In addition, the TGI with MDA-MB-231 breast, with UACC-257 melanoma, with NCI-H460 lung and in the assay with M14 melanoma was > 100 µM each time.
On to `C#CCN(Cc1ccc2nc(OC)c(OC)nc2c1)c1cc(OC)c(OC)c(OC)c1`, for which the TGI with SW-620 colon is > 100 µM; with DU-145 prostate, > 74.5 µM; in the assay with NCI-H226 lung it was 60.6 µM; in the assay on NCI-H522 lung, 36.1 µM; with TK-10 renal it was > 100 µM; in the assay on SNB-75 CNS it was > 100 µM. For the same compound, the TGI in the assay on MDA-MB-231 breast was 43.5 µM; with UACC-257 melanoma, > 100 µM; with NCI-H460 lung, > 87.2 µM; with M14 melanoma, 71.2 µM.

(Values after PubChem BioAssay (NCI).)
